Test results from paper PMC9953701 (Biomedicines, 2023).
Like-named read-outs stand apart in the source and are kept apart here. No end group written: not given here.

How the values were obtained:
[1] = target: T1, aureolysin from S. aureus (Staphylococcus aureus, UniProt P81177); assay: Stability in the presence of the protease aureolysin; format: in vitro ADME; conditions: peptide:enzyme 200:1, 37 °C, RP-HPLC-MS
T1 construct: purchased
Protocol: Peptide stability was also assayed in commercially available Gram-positive, S. aureus protease, aureolysin. […] All the samples were then incubated at 37 °C at different incubation times. The reaction was quenched by acidifying with 5 µL of 0.1% formic acid. The samples were analyzed on MS coupled to RP-HPLC.

aureolysin = assay: commercially available Gram-positive, S. aureus protease, aureolysin; conditions: 37 °C, up to 24 h
[2] = tested on: Bacillus subtilis CCUG 163BT; format: cell-based
Excerpt: (§1) The three bacterial strains—Escherichia coli ATCC 25922, Pseudomonas aeruginosa ATCC 27853, and Staphylococcus aureus ATCC 29213—as well as the fungal strain Candida albicans ATCC 90028 were provided by the Department of Clinical Bacteriology, Lund University Hospital. Bacillus subtilis CCUG 163B^T and Bacillus cereus CCUG 7414^T were obtained from the Department of Molecular Sciences, Swedish University of Agricultural Sciences.
(§2) The standard broth microdilution assay was utilized to assess the MIC of designed peptides according to the guidelines of the Clinical and Laboratory Standards Institute (CLSI). Briefly, bacteria were grown in unbuffered Mueller–Hinton Broth (MHB, VWR International, Leuven, Belgium) as well as buffered (containing 50 mM NaHCO3) medium to the mid-logarithmic phase and were quantified by OD600. The bacterial suspension was diluted in the same medium to reach a final density of 1 × 10^6 colony-forming unit per milliliter (CFU/mL). A volume of 50 µL of the bacterial suspension was added to 96-well plates containing 50 µL of MHB in the absence (viability control) or the presence of the peptides at different concentrations (0.625–80 µM). […] MIC values were derived from 3 sets of independent experiments with different bacterial cultures.

[3] = tested on: Bacillus cereus CCUG 7414T; format: cell-based
Excerpt: as §1, §2

[4] = tested on: Pseudomonas aeruginosa ATCC 27853; format: cell-based; conditions: ATCC 27853, 24 h
Excerpt: as §1, §2

[5] = tested on: Escherichia coli ATCC 25922; format: cell-based; conditions: ATCC 25922, 24 h
Excerpt: as §1, §2

[6] = tested on: Bacillus subtilis CCUG 163BT; format: cell-based; remark: listed apart in the source
Protocol: as §1
(§3) Antimicrobial activities of the peptides were evaluated using the two-step microdilution assay, which is designed for testing AMPs without activity-inhibiting components. Briefly, bacteria were grown to the mid-logarithmic phase at 37 °C in 3% (w/v) tryptic soy broth (TSB) (Merck KGaA, Darmstadt, Germany). The microbial culture was washed twice by centrifugation and resuspension in 10 mM Tris buffer (pH 7.4 at 37 °C, adjusted by HCl). The microbial suspension was quantified by OD600, diluted, and transferred to 96-well untreated polystyrene microplates prepared with 2-fold serial dilutions of the peptides using 50,000 bacteria per well (all dilutions in Tris buffer). These were incubated for 5 h at 37 °C, after which 5 µL of 20% (w/v) TSB was added to each well and the microplates were re-incubated for an additional 6–12 h (depending on the growth rate of each organism). All MICs presented are the medians from triplicate experiments performed independently.

[7] = tested on: E. coli MG1655 wild type and cyclotides-resistant mutants; assay: MIC against cyclotide-resistant strains in buffer conditions; format: cell-based, Escherichia coli; parameters: unit not given here
Protocol: (§4) The LL-37 resistant mutants (DA22427 and DA23307) used in this study were derived from Salmonella enterica serovar Typhimurium DA6192, wild-type and cyclotides-resistant mutants (DA54114 and DA57107) were derived from E. coli MG1655 (wild type) and were kindly provided by Department of Medical Biochemistry and Microbiology, Uppsala University.
(§5) MIC measurements were performed in 20 mM sodium phosphate buffer (PBS), supplemented with 0.1% TSB in 96-well plates (round bottom, Nunc A/S, Roskilde, Denmark) in a total volume of 100 µL. The overnight cultures were diluted 5 × 10^5 CFU/mL in the same medium and 90 µL was transferred into the plates containing 10 µL of 2-fold diluted peptides. […] At least two independent experiments were performed with two technical replicates. In cyclotides, resistant mutant average MIC was reported.

[8] = tested on: Salmonella enterica serovar Typhimurium DA6192 wild type and LL-37-resistant mutants (waaY, phoP); assay: MIC against LL-37-resistant strains in buffer conditions; format: cell-based; parameters: unit not given here; conditions: 20 mM sodium phosphate buffer with 0.1% TSB, 16 to 20 h, 37 °C
Protocol: as §4, §5

[9] = tested on: human red blood cells (RBCs); assay: Hemolysis assay; format: cell-based; conditions: human RBCs 0.25% in PBS pH 7.4, 80 μM peptide (highest test concentration), 1 h, 37 °C, absorbance 405 nm, relative to 1% Triton X-100
Protocol: The hemolytic assay was conducted by preparing a stock solution of 320 μM peptides in MilliQ water and serially diluted in PBS to give 100 μL test solutions in a 96-well U-bottom microtiter plate (Nunc). Human-type RBCs (red blood cells) were collected from the donor, washed with PBS (pH 7.4) three times, and centrifuged at 1500× g for 60 s. A pellet of RBCs was resuspended to 0.25% (v/v) solution in PBS (pH 7.4). A 100 μL 0.25% suspension of washed RBCs in PBS was dispensed into each well containing serially diluted peptide solutions and incubated at 37 °C for 1 h. The 96-well plate was centrifuged at 150× g for 5 min and aliquots of 100 μL were transferred to a 96-well U-bottomed microtiter plate (Falcon) and the absorbance was measured at 405 nm with an automatic Multiskan Ascent plate reader (Labsystems). The amount of hemolysis was calculated as the percentage of maximum lysis (1% Triton X-100 control) after adjusting for minimum lysis (PBS control).

[10] = cited from earlier work
Protocol: One of the major limitations of AMPs for clinical use is their inactivation by both endogenous human proteases and proteases secreted from invading microbes. From our previous studies, it was evident that KR-12 and truncated analogs degrade within 10 min in diluted human serum. More recently, we have shown that the KR-12 cyclic dimer peptides were stable for up to 6 h in diluted human serum but the recovery of LL-37 was very low during the precipitation step of the assay, either due to binding of LL-37 with serum components or rapid degradation. We also compared the stability pro ...

[11] = tested on: Bacillus cereus CCUG 7414T; format: cell-based; conditions: B. cereus; TSB, Tryptic Soy broth (rich media, unbuffered)
[12] = tested on: Bacillus subtilis CCUG 163BT; format: cell-based; conditions: B. subtilis; TSB, Tryptic Soy broth (rich media, unbuffered)
[13] = tested on: Bacillus cereus CCUG 7414T; format: cell-based; conditions: CCUG 7414, 5 h
Protocol: as §1, §3

[14] = E. coli DA54114 cyclotide-resistant mutant, sodium phosphate buffer with 0.1% TSB, average MIC
[15] = E. coli DA57107 cyclotide-resistant mutant, sodium phosphate buffer with 0.1% TSB, average MIC
[16] = E. coli WT (MG1655), 20 mM sodium phosphate buffer with 0.1% TSB, 16 to 20 h, 37 °C
[17] = S. typhimurium phoP LL-37-resistant mutant
[18] = S. typhimurium waaY LL-37-resistant mutant

T1 sequence (P81177 209-509): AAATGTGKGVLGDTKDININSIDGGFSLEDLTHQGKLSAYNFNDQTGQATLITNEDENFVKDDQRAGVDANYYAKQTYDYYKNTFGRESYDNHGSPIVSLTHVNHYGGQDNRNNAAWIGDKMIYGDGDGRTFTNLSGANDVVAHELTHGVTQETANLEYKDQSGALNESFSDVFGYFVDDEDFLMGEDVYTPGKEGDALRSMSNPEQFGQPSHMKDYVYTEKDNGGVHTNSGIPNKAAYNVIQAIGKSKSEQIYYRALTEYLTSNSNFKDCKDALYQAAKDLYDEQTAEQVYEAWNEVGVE

Molecule	MIC ([2]; CCUG 163, 24 h)	MIC ([3]; CCUG 7414, 24 h)	MIC [4]	MIC [5]	MIC ([6]; CCUG 163, 5 h)	MIC [7, 14]	MIC [7, 15]	MIC [7, 16]	MIC ([8]; S. typhimurium WT (DA6192))	MIC [8, 17]	MIC [8, 18]	further results
Kalata B7												time for which the peptide was stable in aureolysin (stable for up to) [1]: ≥ 24 h
LLGDFFRKSKEKIGKEFKRIVQRIKDFLRNLVPRTES												cleaved bond (aureolysin): Leu31-Val32, first_seen, within the first 5 min
KRIVKRIKAFLR [KR-12 (Q5K,D9A)]	> 80 µM	> 80 µM	10 µM	10 µM	1.25 µM	1	1	1	10	10	10	
CC[C@H](C)[C@H](NC(=O)[C@H](CCCCN)NC(=O)[C@H](CCC(=O)O)NC(=O)[C@H](CCCCN)NC(=O)[C@H](CO)NC(=O)[C@H](CCCCN)NC(=O)[C@H](CCCNC(=N)N)NC(=O)[C@H](Cc1ccccc1)NC(=O)[C@H](Cc1ccccc1)NC(=O)[C@H](CC(=O)O)NC(=O)CNC(=O)[C@H](CC(C)C)NC(=O)[C@@H](N)CC(C)C)C(=O)NCC(=O)N[C@@H](CCCCN)C(=O)N[C@@H](CCC(=O)O)C(=O)N[C@@H](Cc1ccccc1)C(=O)N[C@@H](CCCCN)C(=O)N[C@@H](CCCNC(=N)N)C(=O)N[C@H](C(=O)N[C@H](C(=O)N[C@@H](CCC(N)=O)C(=O)N[C@@H](CCCNC(=N)N)C(=O)N[C@H](C(=O)N[C@@H](CCCCN)C(=O)N[C@@H](CC(=O)O)C(=O)N[C@@H](Cc1ccccc1)C(=O)N[C@@H](CC(C)C)C(=O)N[C@@H](CCCNC(=N)N)C(=O)N[C@@H](CC(N)=O)C(=O)N[C@@H](CC(C)C)C(=O)N[C@H](C(=O)N1CCC[C@H]1C(=O)N[C@@H](CCCNC(=N)N)C(=O)N[C@H](C(=O)N[C@@H](CCC(=O)O)C(=O)N[C@@H](CO)C(=O)O)[C@@H](C)O)C(C)C)[C@@H](C)CC)C(C)C)[C@@H](C)CC [LL-37]												MIC ([2]; B. subtilis, MHB, Muller-Hinton broth (rich media, unbuffered)): > 80 µM; MIC ([3]; B. cereus, MHB, Muller-Hinton broth (rich media, unbuffered)): > 80 µM; time to hydrolysis of the Leu31-Val32 peptide bond by aureolysin [1]: ≤ 5 min; MIC ([6]; B. subtilis, Control: two-step microdilution assay in Tris buffer 10 mM without salts): 1.25 µM; hemolysis [9]: 19–23%; recovery during the precipitation step of the serum stability assay ([10]; diluted human serum): very low; MIC [11]: > 80 µM; MIC [12]: > 80 µM
KRIVQRIKDFLR [KR-12]	> 80 µM	> 80 µM	>20 µM	> 20 µM	5 µM	1	1	1	20	20	20	MIC [13]: 2.5 µM; time within which the peptide degrades in diluted human serum [10]: ≤ 10 min
